From the NIST ThermoML archive (doi:10.1016/j.jct.2017.03.033)

Assay: molar heat capacity at constant pressure
Settings: Liquid, Flow calorimetry

CC(C)C [2-methylpropane]
Settings	molar heat capacity at constant pressure [J/K/mol]
303.53 K, 1050 kPa	142.52
303.55 K, 1540 kPa	141.88
303.56 K, 2000 kPa	141.53
303.56 K, 3020 kPa	140.13
303.57 K, 2500 kPa	140.83
303.59 K, 9990 kPa	135.77
303.62 K, 4030 kPa	139.55
303.62 K, 4500 kPa	139.32
303.62 K, 6500 kPa	138.1
303.62 K, 7990 kPa	136.88
303.63 K, 6010 kPa	138.45
303.63 K, 7030 kPa	137.69
303.63 K, 7530 kPa	137.34
303.63 K, 8510 kPa	136.7
303.63 K, 9510 kPa	136.24
303.64 K, 5000 kPa	139.03
303.64 K, 9000 kPa	136.47
303.65 K, 5520 kPa	138.8
303.7 K, 3480 kPa	139.78
303.82 K, 11510 kPa	134.38
303.82 K, 12000 kPa	134.2
303.86 K, 10530 kPa	135.37
303.86 K, 11040 kPa	134.96
313.48 K, 1040 kPa	142.81
313.48 K, 6480 kPa	138.39
313.49 K, 3020 kPa	141.12
313.49 K, 7500 kPa	138.1
313.5 K, 5530 kPa	139.09
313.5 K, 6030 kPa	138.56
313.5 K, 7030 kPa	138.27
313.5 K, 8040 kPa	137.81
313.5 K, 8480 kPa	137.69
313.51 K, 1540 kPa	142.46
313.51 K, 2020 kPa	141.93
313.51 K, 2540 kPa	141.53
313.51 K, 4010 kPa	140.6
313.51 K, 9020 kPa	137.52
313.52 K, 4500 kPa	140.07
313.52 K, 9480 kPa	137.34
313.52 K, 10060 kPa	137.28
313.54 K, 5080 kPa	139.26
313.55 K, 10530 kPa	136.59
313.57 K, 11480 kPa	136.3
313.57 K, 12050 kPa	136.12
313.58 K, 3550 kPa	140.95
313.58 K, 11070 kPa	136.47
323.11 K, 1040 kPa	146.53
323.16 K, 1510 kPa	146.24
323.22 K, 2020 kPa	145.77
323.23 K, 3510 kPa	144.03
323.24 K, 2540 kPa	145.01
323.25 K, 3020 kPa	144.49
323.25 K, 4020 kPa	143.62
323.27 K, 10500 kPa	139.49
323.28 K, 4550 kPa	143.33
323.28 K, 10980 kPa	139.44
323.3 K, 4970 kPa	143.04
323.31 K, 11540 kPa	139.38
323.32 K, 5500 kPa	142.69
323.32 K, 5980 kPa	142.17
323.33 K, 6470 kPa	141.7
323.33 K, 7020 kPa	141.3
323.34 K, 11990 kPa	139.2
323.35 K, 7470 kPa	141.24
323.37 K, 7990 kPa	141
323.37 K, 9480 kPa	140.07
323.38 K, 8510 kPa	140.77
323.38 K, 9990 kPa	139.67
323.39 K, 9000 kPa	140.42
333.64 K, 1050 kPa	151.06
333.65 K, 10550 kPa	143.33
333.65 K, 10920 kPa	143.21
333.66 K, 5960 kPa	145.65
333.66 K, 11520 kPa	143.15
333.67 K, 4020 kPa	147.05
333.67 K, 4480 kPa	146.76
333.67 K, 9460 kPa	143.5
333.67 K, 11930 kPa	143.15
333.68 K, 10010 kPa	143.62
333.69 K, 1530 kPa	150.48
333.69 K, 5010 kPa	146.41
333.69 K, 7030 kPa	145.31
333.7 K, 5530 kPa	146.12
333.7 K, 6520 kPa	145.54
333.71 K, 3530 kPa	147.63
333.71 K, 8510 kPa	144.43
333.72 K, 2020 kPa	149.84
333.72 K, 2520 kPa	149.2
333.72 K, 8970 kPa	144.38
333.73 K, 3050 kPa	148.79
333.73 K, 7550 kPa	145.13
333.74 K, 8040 kPa	145.13
343.71 K, 1520 kPa	159.49
343.76 K, 2030 kPa	157.92
343.79 K, 3510 kPa	155.13
343.81 K, 2530 kPa	157.34
343.81 K, 3030 kPa	155.65
343.83 K, 4010 kPa	154.02
343.84 K, 5010 kPa	153.09
343.85 K, 4530 kPa	153.62
343.85 K, 6000 kPa	151.06
343.85 K, 7500 kPa	149.49
343.85 K, 8000 kPa	148.27
343.85 K, 8500 kPa	147.98
343.85 K, 10990 kPa	145.77
343.85 K, 12010 kPa	145.07
343.86 K, 5490 kPa	151.93
343.86 K, 6530 kPa	150.36
343.86 K, 10020 kPa	146.82
343.86 K, 11480 kPa	145.48
343.87 K, 9000 kPa	147.51
343.87 K, 10510 kPa	146.47
343.88 K, 7020 kPa	150.07
343.88 K, 9490 kPa	147.4
353.82 K, 2510 kPa	163.9
353.85 K, 3020 kPa	162.57
353.85 K, 9000 kPa	152.16
353.85 K, 9500 kPa	151.7
353.86 K, 4510 kPa	158.62
353.87 K, 4990 kPa	158.09
353.87 K, 6010 kPa	156.06
353.87 K, 7000 kPa	153.97
353.87 K, 8520 kPa	152.22
353.87 K, 10000 kPa	151.35
353.87 K, 10510 kPa	151
